Key:
[1] = test system: HS-PSS; assay: relative IC50 (inflection point of fitted dose-response curve, CellTox-Green cytotoxicity, 72 h; top asymptote may be below 50%); higher = less potent
Outline: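 For 72 h at 37 °C, MPNST cell lines and primary human Schwann cells were exposed in 384-well plates to five 10-fold compound dilutions. CellTox-Green, added before seeding at a final 1:1000 dilution, gave fluorescence from DNA released by disrupted cells. Signals were scaled to vehicle and positive-control wells, cultures failing plate quality control were left out, and four-parameter logistic fits were applied. Relative IC50 and drug sensitivity score were derived from the fits, with IC50 censored at the top concentration.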

[2] = test system: HS-PSS; assay: relative IC50 (inflection point of fitted dose-response curve, CellTiter-Glo viability, 72 h; top asymptote may be below 50% inhibition); higher = less potent
Outline: (§1)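 After seeding 750–1000 cells per well of MPNST cell lines or primary human Schwann cells into 384-well plates preprinted with each compound at five concentrations in 10-fold steps, plates were kept 72 h at 37 °C, 5% CO2. Viability was read as CellTiter-Glo ATP luminescence relative to vehicle and positive-control wells, with duplicates averaged where present. The data were fitted with four-parameter logistic models. Drug sensitivity score and relative IC50, censored at the top concentration, derive from the fits, and percent inhibition refers to the top concentration.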

[3] = test system: HS-Sch-2; assay: as above
Outline: as §1

[4] = test system: YST-1; assay: as above
Outline: as §1

SMILES	relative IC50 [1]	relative IC50 [2]	relative IC50 [3]	relative IC50 [4]
Cn1ncc(Cl)c1-c1cc(C(=O)N[C@H](CN)Cc2ccc(F)c(F)c2)oc1Cl [Uprosertib]	> 10000 nM	> 10000 nM	> 10000 nM	
OC(CC1c2ccccc2-c2cncn21)C1CCCCC1 (centres undefined) [NLG919]	> 10000 nM	> 10000 nM	> 10000 nM	
CC(=O)NCC(=O)N1[C@@H]2CC[C@H]1c1ccc(Nc3ncc(C(F)(F)F)c(NC4CCC4)n3)cc12		960 nM	946 nM	749 nM
Nc1nc2[nH]cc(CCc3ccc(C(=O)N[C@@H](CCC(=O)O)C(=O)O)cc3)c2c(=O)[nH]1 [Pemetrexed]	> 10000 nM	> 10000 nM	64.1 nM	
CN(c1ncccc1CNc1nc(Nc2ccc3c(c2)CC(=O)N3)ncc1C(F)(F)F)S(C)(=O)=O		3340 nM	3410 nM	2010 nM
Cc1cc(Nc2ncc(Cl)c(Nc3ccccc3S(=O)(=O)C(C)C)n2)c(OC(C)C)cc1C1CCNCC1 [Ceritinib]		91.3 nM	926 nM	359 nM
CC1(C)CCC(CN2CCN(c3ccc(C(=O)NS(=O)(=O)c4ccc(NCC5CCOCC5)c([N+](=O)[O-])c4)c(Oc4cnc5[nH]ccc5c4)c3)CC2)=C(c2ccc(Cl)cc2)C1 [Venetoclax]	> 1000 nM	> 1000 nM	> 1000 nM	
Cc1cc(C)c(/C=C2\C(=O)Nc3ccccc32)[nH]1 [Semaxanib]	2280 nM	> 10000 nM	> 10000 nM	
CN[C@@H](C)C(=O)N[C@H](C(=O)N1CCC[C@H]1c1nc(C(=O)c2ccc(F)cc2)cs1)C1CCCCC1 [LCL161]		3860 nM	7520 nM	4260 nM
Cc1cc([C@@H](C)Nc2ccccc2C(=O)O)c2nc(N3CCOCC3)cc(=O)n2c1 [AZD-6482]	> 2500 nM	> 2500 nM	> 2500 nM	
CNC(=O)c1ccccc1Nc1cc(Nc2ccc(N3CCOCC3)cc2OC)ncc1C(F)(F)F [VS-4718]		3690 nM	2610 nM	724 nM
CCn1nnc2c(N3CCOCC3)nc(-c3ccc(NC(=O)Nc4ccc(C(=O)N5CCN(C)CC5)cc4)cc3)nc21 [PKI-402]		46.7 nM	95.8 nM	61.1 nM
COc1ccc(COc2cc3oc(=O)c4cc(C(C)O)ccc4c3cc2OC)cc1 (centres undefined) [Palomid-529]	> 10000 nM	> 10000 nM	> 10000 nM	
CON(C)C(=O)N1N=C(c2cc(F)ccc2F)S[C@@]1(CCCN)c1ccccc1 [Filanesib]		4.62 nM	2.19 nM	2.28 nM
N#CC(c1ccnc(OCc2ccc(CN3CCOCC3)cc2)n1)c1nc2ccccc2s1 (centres undefined) [Bentamapimod]		1690 nM	2690 nM	1500 nM
c1cn2cc(-c3ccc4cn[nH]c4c3)nc(Nc3ccc(N4CCOCC4)cc3)c2n1 [Entospletinib]	> 5000 nM	> 5000 nM	> 5000 nM	
Cc1ccc2nc(CN(CCN(Cc3nc4ccc(C)cc4[nH]3)Cc3nc4ccc(C)cc4[nH]3)Cc3nc4ccc(C)cc4[nH]3)[nH]c2c1		7700 nM	8240 nM	7770 nM
O=C(c1ccc(F)c(F)c1Nc1ccc(I)cc1F)N1CC(O)([C@@H]2CCCCN2)C1 [Cobimetinib]		159 nM	300 nM	> 1000 nM
CCOc1cc2ncc(C#N)c(Nc3ccc(F)c(Cl)c3)c2cc1NC(=O)/C=C/CN(C)C [Pelitinib]		79.5 nM	195 nM	323 nM
COc1cc(NS(C)(=O)=O)ccc1Nc1c2ccccc2nc2ccccc12 [Amsacrine]		1250 nM	634 nM	252 nM
O=C1c2ccccc2-c2n[nH]c3cccc1c23		13300 nM	13900 nM	20100 nM
O=C(/C=C\n1cnc(-c2cc(C(F)(F)F)cc(C(F)(F)F)c2)n1)NNc1ccccn1 [Verdinexor]		137 nM	137 nM	144 nM
COCC(=O)NC/C=C/c1ccc2ncnc(Nc3ccc(Oc4ccc(C)nc4)c(C)c3)c2c1	> 10000 nM	1540 nM	1250 nM	
CC(C)CC(=O)Nc1n[nH]c2c1CN(C(=O)C1CCN(C)CC1)C2(C)C		604 nM	1290 nM	859 nM

SMILES	relative IC50 [1]	relative IC50 [2]	relative IC50 [3]	relative IC50 [4]
CNC(=O)c1cc(COc2nnc(Nc3ccc(Cl)cc3)c3ccoc23)ccn1 [Telatinib]	> 10000 nM	> 10000 nM	> 10000 nM	
O=C(O)c1ccc(Nc2ncc3c(n2)-c2ccc(Cl)cc2C(c2c(F)cccc2F)=NC3)cc1 [MLN-8054]		1260 nM	1110 nM	625 nM
CCc1cc2c(cc1N1CCC(N3CCOCC3)CC1)C(C)(C)c1[nH]c3cc(C#N)ccc3c1C2=O [Alectinib]	> 1000 nM	34.8 nM	> 1000 nM	
CC(C)NC[C@@H](C(=O)N1CCN(c2ncnc3c2[C@H](C)C[C@H]3O)CC1)c1ccc(Cl)cc1 [Ipatasertib]		1160 nM	1080 nM	879 nM
CC(C)(C)C[C@@H]1N[C@@H](C(=O)N[C@H]2CC[C@H](O)CC2)[C@H](c2cccc(Cl)c2F)[C@]12C(=O)Nc1cc(Cl)ccc12	> 10000 nM	3280 nM		140 nM
CCc1cc(Nc2nccc(-c3c(-c4ccc(OC)c(C(=O)Nc5c(F)cccc5F)c4)nc4ccccn34)n2)c(OC)cc1N1CCC(N2CCN(S(C)(=O)=O)CC2)CC1	> 10000 nM	> 10000 nM		31.2 nM
COc1cccc(OCCCN)c1-c1cc(Nc2cnc(C#N)cn2)n[nH]1 [Prexasertib]		1770 nM	26 nM	54.7 nM
COc1cc2ncnc(Oc3cccc(NC(=O)Nc4cc(C(C)(C)C(F)(F)F)on4)c3)c2cc1OC	> 10000 nM	> 10000 nM	> 10000 nM	
C=CC(=O)Nc1cc(Nc2nccc(-c3cn(C)c4ccccc34)n2)c(OC)cc1N(C)CCN(C)C [Osimertinib]		472 nM	759 nM	299 nM
CNc1nc(-c2ccc3c(N)n[nH]c3c2)cc(N2C[C@@H](C(=O)NC3CCCCC3)CC[C@H]2C)n1	> 10000 nM	3050 nM		585 nM
Cc1cc2c(C(=O)NC[C@H](C)c3ccccc3)c(O)c(O)cc2c(O)c1-c1c(C)cc2c(C(=O)NC[C@H](C)c3ccccc3)c(O)c(O)cc2c1O [Sabutoclax]		8740 nM	523 nM	618 nM
O=C(Nc1cccc(NC(=O)c2cccc(O)c2O)c1)c1cccc(O)c1O [MST-312]		3370 nM	984 nM	3120 nM
Cn1cnc2c(F)c(Nc3ccc(Br)cc3F)c(C(=O)NOCCO)cc21 [Binimetinib]	> 1000 nM	> 1000 nM		> 1000 nM
Cc1ncc(-c2ccnc(Nc3ccc(S(C)(=O)=O)cc3)n2)n1C(C)C [AZD-5438]		367 nM	1900 nM	1450 nM
Cc1c(NC(=O)OC[C@@H]2COCCN2)cn2ncnc(Nc3ccc4c(cnn4Cc4cccc(F)c4)c3)c12		2150 nM	1990 nM	1000 nM
CCN(CC)CCN(Cc1ccc(-c2ccc(C(F)(F)F)cc2)cc1)C(=O)Cn1c(SCc2ccc(F)cc2)nc(=O)c2c1CCC2 [Darapladib]	250 nM	224 nM	192 nM	
Cc1cnc(-c2ccccc2C(C)C)nc1NCc1ccc(-n2ccnn2)cc1 [ML323]	> 10000 nM	1670 nM	1460 nM	
N#Cc1c(Oc2ccc(F)c(NC(=O)Cc3cccc(C(F)(F)F)c3)c2)ccc2nc(NC(=O)C3CC3)sc12 [TAK-632]	> 10000 nM	3980 nM	3860 nM	
Cc1cc(-c2nc(-c3ccc(OC(F)(F)F)cc3)no2)nn1Cc1ccnc(N2CCN(C3CC3)CC2)c1 [BAY 87-2243]	> 1000 nM	0.66 nM	0.63 nM	
O[C@H]1CC[C@H](Nc2ncc3nc(Nc4c(F)cc(F)cc4F)n([C@H]4CCOC4)c3n2)CC1 [Tanzisertib]	> 10000 nM	> 10000 nM	> 10000 nM	
C=CC(=O)N1CCC(Oc2cc3c(Nc4ccc(Cl)c(Cl)c4F)ncnc3cc2OC)CC1 [Poziotinib]	> 1000 nM	> 1000 nM	> 1000 nM	
O=C(O)CC1CC(c2ccccc2)=NO1 (centres undefined) [VGX-1027]	> 10000 nM	> 10000 nM		> 10000 nM
CNC(=O)[C@@H](NC(=O)[C@H](CC(C)C)[C@H](O)C(=O)NO)C(C)(C)C [Marimastat]	> 10000 nM	> 10000 nM		> 10000 nM
Cc1c(C(=O)Nc2ccc(N3C[C@@H](C)O[C@@H](C)C3)nc2)cccc1-c1ccc(OC(F)(F)F)cc1 [Sonidegib]	> 10000 nM	760 nM		> 10000 nM

From the supplement of paper PMC5579334
